Test results: patent US12668591B2, “1,2,4-oxadiazole derivatives as histone deacetylase 6 inhibitors” (Oryzon Genomics, S.A., priority 2017, dated 2026)

Molecular target: T1, HDAC6 (Homo sapiens, UniProt Q9UBN7)
T1 sequence (Q9UBN7 1-1215): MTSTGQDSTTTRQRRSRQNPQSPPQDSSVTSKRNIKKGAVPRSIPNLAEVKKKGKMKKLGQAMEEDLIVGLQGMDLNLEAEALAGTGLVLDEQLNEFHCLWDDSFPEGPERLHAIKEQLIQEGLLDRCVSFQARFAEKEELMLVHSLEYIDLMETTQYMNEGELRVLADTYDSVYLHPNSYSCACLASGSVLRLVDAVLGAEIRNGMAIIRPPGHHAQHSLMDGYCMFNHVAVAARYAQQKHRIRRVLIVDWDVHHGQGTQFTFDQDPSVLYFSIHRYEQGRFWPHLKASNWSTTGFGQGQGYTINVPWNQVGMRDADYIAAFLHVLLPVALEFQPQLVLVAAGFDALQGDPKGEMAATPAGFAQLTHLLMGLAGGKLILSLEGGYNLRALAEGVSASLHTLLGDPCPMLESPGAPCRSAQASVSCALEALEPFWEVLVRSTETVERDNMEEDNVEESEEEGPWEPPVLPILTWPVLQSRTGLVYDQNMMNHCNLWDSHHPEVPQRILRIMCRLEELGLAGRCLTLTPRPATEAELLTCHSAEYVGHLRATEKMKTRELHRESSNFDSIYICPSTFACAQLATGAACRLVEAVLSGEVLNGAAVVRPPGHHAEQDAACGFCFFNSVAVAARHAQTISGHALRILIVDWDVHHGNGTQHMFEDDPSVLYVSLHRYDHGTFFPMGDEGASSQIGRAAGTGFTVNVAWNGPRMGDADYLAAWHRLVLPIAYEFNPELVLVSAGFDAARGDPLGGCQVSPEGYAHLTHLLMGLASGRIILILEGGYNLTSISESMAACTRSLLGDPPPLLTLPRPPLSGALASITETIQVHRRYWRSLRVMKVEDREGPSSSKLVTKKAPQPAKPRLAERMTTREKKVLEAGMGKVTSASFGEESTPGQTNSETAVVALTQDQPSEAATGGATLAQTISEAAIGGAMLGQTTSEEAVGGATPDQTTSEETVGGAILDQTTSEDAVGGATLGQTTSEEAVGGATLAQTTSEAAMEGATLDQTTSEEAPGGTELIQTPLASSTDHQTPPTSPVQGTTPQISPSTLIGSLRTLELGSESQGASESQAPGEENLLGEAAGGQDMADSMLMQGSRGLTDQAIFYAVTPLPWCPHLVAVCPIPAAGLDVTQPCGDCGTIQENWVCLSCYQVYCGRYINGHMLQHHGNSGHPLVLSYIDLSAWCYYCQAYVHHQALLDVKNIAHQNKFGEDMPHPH
Assay: In vitro cell-based assay: acetylation levels of Alpha-Tubulin by Western Blot in MOLP8 cells
Set-up: endogenous in cells; host or cells: MOLP8
Settings: 18 h, acetyl-alpha-tubulin relative band intensity, ACY-1215 1 μM = 100%
Experimental: In Vitro Cell-Based Assay
In order to determine the cellular activity of HDAC6 upon treatment with HDAC6 inhibitors, acetylation levels of Alpha-Tubulin (a HDAC6-specific substrate) were measured by Western Blot. For this, MOLP8 cells were seeded in 6-well plates at a cell density of 500.000 cells/well and treated with the selected compounds at 5 and 1 μM for 18 h at 37° C. and 5% CO2 in a humidified tissue culture incubator. Consecutively, cell pellets were collected and whole protein extracts prepared using RIPA buffer (SIGMA) supplemented with 1× protease inhibitors (cOmplete mini, Roche). Protein concentration was determined with Bradford's reagent (Bio-Rad) as per manufacturer's instructions, and 7 μg of total protein were loaded into pre-cast 10% NuPAGE Novex gels (Life Technologies). Gels were run in […] (Life Technologies) and proteins were transferred using the iBlot 2 Dry Blotting System (Life Technologies). Blots were subsequently rinsed in distilled water and stained with Ponceau S solution (SIGMA). Blots were then washed in distilled water to remove Ponceau excess and scanned with the Epson Perfection V600 Photo professional Scanner. After this, blots were de-stained and blocked in 5% milk/PBS-Tween 0.1% for 1 h at room temperature followed by incubation with anti-Acetyl-alpha Tubulin (SIGMA cat. #T7451, 1:10.000 dilution) and anti-Beta-actin (SIGMA, cat. #A5316, 1:2.000 dilution) primary antibodies in 5% milk/PBS-T 0.1%, overnight at 4° C. on a shaking platform. After incubation, blots were washed 3 times for 5 minutes each in PBS-Tween 0.5% and incubated with anti-mouse HRP-conjugated secondary antibody (Jackson Immuno Research, cat. #115-035-068) at 1:8.000 in 5% milk/PBS-Tween 0.1%, 1 h at room temperature on a shaking platform. After 3 washes of 5 minutes each with PBS-Tween 0.5% and 1 wash in PBS 1×, blots were developed with ECL Plus (GE Healthcare) and the chemiluminescent reaction imaged with the G:Box Chemi XRQ (Syngene) imaging system. WB and Ponceau images were analysed with ImageJ software, WB band intensities normalized by either total protein or Beta-actin content and made relative to ACY-1215 1 μM (equivalent to 100%). ACY-1215 is a HDAC6 inhibitor, and is also known as ricolinostat, with chemical name 2-(diphenylamino)-N-[7-(hydroxyamino)-7-oxoheptyl]-5-pyrimidinecarboxamide. Percentage of band intensities was classified as follows: […]

Cellular activity @1 uM | Cellular activity @5 uM | SMILES
− (<50) | ++ (150-300) | CCCn1ccc2cc(-c3cc(-c4noc(C(F)(F)F)n4)ccn3)ncc21 [Example 1a, 3-(2-(1-Propyl-1H-pyrrolo[2,3-c]pyridin-5-yl)pyridin-4-yl)-5-(trifluoromethyl)-1,2,4-oxadiazole]
+ (50-150) | + (50-150) | COCCn1nc(-c2cc(-c3noc(C(F)(F)F)n3)ccn2)c2ncccc21 [Example 1aaa, 3-(2-(1-(2-Methoxyethyl)-1H-pyrazolo[4,3-b]pyridin-3-yl)pyridin-4-yl)-5-(trifluoromethyl)-1,2,4-oxadiazole]
+ (50-150) | + (50-150) | CCn1nc(-c2cc(-c3noc(C(F)(F)F)n3)ccn2)c2ncccc21 [Example 1aab, 3-(2-(1-Ethyl-1H-pyrazolo[4,3-b]pyridin-3-yl)pyridin-4-yl)-5-(trifiuoromethyl)-1,2,4-oxadiazole]
+ (50-150) | ++ (150-300) | Cn1ccnc1CCn1nc(-c2cc(-c3noc(C(F)(F)F)n3)ccn2)c2ncccc21 [Example 1aac]
− (<50) | + (50-150) | FC(F)(F)c1nc(-c2ccnc(-c3ccc(OCCCn4cccn4)cn3)c2)no1 [Example 1ag, 3-(5′-(3-(1H-Pyrazol-1-yl)propoxy)-[2,2′-bipyridin]-4-yl)-5-(trifluoromethyl)-1,2,4-oxadiazole]
+ (50-150) | + (50-150) | CCCCn1cc(CO)c2cc(-c3cc(-c4noc(C(F)(F)F)n4)ccn3)ncc21 [Example 1aj, (1-butyl-5-(4-(5-(trifluoromethyl)-1,2,4-oxadiazol-3-yl)pyridin-2-yl)-1H-pyrrolo[2,3-c]pyridin-3-yl)methanol]
− (<50) | + (50-150) | Cn1ccc2cc(-c3cc(-c4noc(C(F)(F)F)n4)ccn3)ncc21 [Example 1at, 3-(2-(1-Methyl-1H-pyrrolo[2,3-c]pyridin-5-yl)pyridin-4-yl)-5-(trifluoromethyl)-1,2,4-oxadiazole]
+ (50-150) | ++ (150-300) | FC(F)(F)c1nc(-c2ccnc(-c3cc4c(ccn4Cc4cccnc4)cn3)c2)no1 [Example 1av, 3-(2-(1-(Pyridin-3-ylmethyl)-1H-pyrrolo[3,2-c]pyridin-6-yl)pyridin-4-yl)-5-(trifluoromethyl)-1,2,4-oxadiazole]
− (<50) | + (50-150) | COCCn1ncc2cc(-c3cc(-c4noc(C(F)(F)F)n4)ccn3)ncc21 [Example 1ay, 3-(2-(1-(2-Methoxyethyl)-1H-pyrazolo[3,4-c]pyridin-5-yl)pyridin-4-yl)-5-(trifluoromethyl)-1,2,4-oxadiazole]

The remaining lines, values behind:

SMILES | Cellular activity @1 uM | Cellular activity @5 uM
Cn1cc(Cn2ccc3cnc(-c4cc(-c5noc(C(F)(F)F)n5)ccn4)cc32)cn1 [Example 1aad, 3-(2-(1-((1-Methyl-1H-pyrazol-4-yl)methyl)-1H-pyrrolo[3,2-c]pyridin-6-yl)pyridin-4-yl)-5-(trifluoromethyl)-1,2,4-oxadiazole] | + (50-150) | ++ (150-300)
O=C(CCc1ccccc1)Nc1ccnc(-c2cc(-c3noc(C(F)(F)F)n3)ccn2)c1 [Example 1ad, 3-Phenyl-N-(4′-(5-(trifluoromethyl)-1,2,4-oxadiazol-3-yl)-[2,2′-bipyridin]-4-yl)propanamide] | + (50-150) | + (50-150)
O=C(NC1CCCNC1)c1ccnc(-c2cc(-c3noc(C(F)(F)F)n3)ccn2)c1 (centres unmarked) [Example 1af, N-(Piperidin-3-yl)-4′-(5-(trifluoromethyl)-1,2,4-oxadiazol-3-yl)-[2,2′-bipyridine]-4-carboxamide] | + (50-150) | + (50-150)
CCCn1cc(COC)c2cc(-c3cc(-c4noc(C(F)(F)F)n4)ccn3)ncc21 [Example 1ai, 3-(2-(3-(Methoxymethyl)-1-propyl-1H-pyrrolo[2,3-c]pyridin-5-yl)pyridin-4-yl)-5-(trifluoromethyl)-1,2,4-oxadiazole] | − (<50) | + (50-150)
CN1CCC(CNC(=O)c2ccnc(-c3cc(-c4noc(C(F)(F)F)n4)ccn3)c2)CC1 [Example 1am, N-((1-Methylpiperidin-4-yl)methyl)-4′-(5-(trifluoromethyl)-1,2,4-oxadiazol-3-yl)-[2,2′-bipyridine]-4-carboxamide] | + (50-150) | + (50-150)
CN1CCC(CNC(=O)c2ccc(-c3cc(-c4noc(C(F)(F)F)n4)ccn3)nc2)CC1 [Example 1an, N-((1-Methylpiperidin-4-yl)methyl)-4′-(5-(trifluoromethyl)-1,2,4-oxadiazol-3-yl)-[2,2′-bipyridine]-5-carboxamide] | + (50-150) | + (50-150)
FC(F)(F)CN1CCC(n2ccc3cnc(-c4cc(-c5noc(C(F)(F)F)n5)ccn4)cc32)CC1 [Example 1ao, 3-(2-(1-(1-(2,2,2-Trifluoroethyl)piperidin-4-yl)-1H-pyrrolo[3,2-c]pyridin-6-yl)pyridin-4-yl)-5-(trifluoromethyl)-1,2,4-oxadiazole] | + (50-150) | ++ (150-300)
COCCn1c(C(=O)N(C)C)cc2cc(-c3cc(-c4noc(C(F)(F)F)n4)ccn3)ncc21 [Example 1ar, 1-(2-Methoxyethyl)-N,N-dimethyl-5-(4-(5-(trifluoromethyl)-1,2,4-oxadiazol-3-yi)pyridin-2-yl)-1H-pyrrolo[2,3-c]pyridine-2-carboxamide] | + (50-150) | + (50-150)
COCCn1cc(-c2cn[nH]c2)c2cc(-c3cc(-c4noc(C(F)(F)F)n4)ccn3)ncc21 [Example 1as, 3-(2-(1-(2-Methoxyethyl)-3-(1H-pyrazol-4-yl)-1H-pyrrolo[2,3-c]pyridin-5-yl)pyridin-4-yl)-5-(trifluoromethyl)-1,2,4-oxadiazole] | + (50-150) | + (50-150)
CN(CCO)CCCOc1ccc(-c2cc(-c3noc(C(F)(F)F)n3)ccn2)nc1 [Example 1ax, 2-(Methyl(3-((4′-(5-(trifluoromethyl)-1,2,4-oxadiazol-3-yl)-[2,2′-bipyridin]-5-yl)oxy)propyl)amino)ethan-1-ol] | + (50-150) | + (50-150)
